PMC7138916 (Pharmacology Research & Perspectives, 2020)

Assays:
[1] = system: efflux transporters (eg, P‐gp, BCRP, MRPs); assay: Classification as efflux transporter substrate; conditions: for Efflux transporter substrate: Yes/No; for Class (based on membrane permeability and ER value): parental MDCK, MDR1‐MDCK, and Caco‐2 cell lines
[2] = Bidirectional permeability and efflux ratio in Caco‐2 cells; format: in vitro ADME, human; conditions: human; for Papp A→B at 2 h, 5 μmol/L / Papp B→A at 2 h, 5 μmol/L: Caco-2; for efflux ratio at 2 h, 5 μmol/L: Caco-2, Efflux ratio, Caco‐2 cell line, P app(B–A)/P app(A–B)
[3] = Rat pharmacokinetic study, IV single bolus; conditions: for Vd / clearance / half-life: male, Sprague-Dawley, in vivo, iv
human P-gp (MDR1) = human P-gp (MDR1) (Homo sapiens, UniProt P08183); assay: Bidirectional permeability and efflux ratio in MDR1‐MDCK cells; format: in vitro ADME; conditions: human; for Papp A→B at 2 h, 1 μmol/L / Papp B→A at 2 h, 1 μmol/L: MDCK-MDR1; for efflux ratio at 2 h, 1 μmol/L: MDCK-MDR1, Efflux ratio, MDR1‐MDCK cell line, P app(B–A)/P app(A–B)
[4] = Rat microdialysis at additional two brain positions; format: in vivo; conditions: steady state, n = 3, mean ± SD
[5] = Rat brain and blood microdialysis at steady state; conditions: for concentration at 6 h: male, Sprague-Dawley, in vivo, iv, C m,brain
[6] = rat; ref 20 (Summerfield et al); cited from earlier work
[7] = Bidirectional permeability in parental MDCK cells; format: in vitro ADME, Canine; conditions: dog, MDCK
Caco‐2 cell line = assay: Bidirectional permeability and efflux ratio in Caco‐2 cells; format: in vitro ADME, human; conditions: Caco‐2 cell line; for Efflux ratio: P app(B–A)/P app(A–B)
human P‐gp (MDR1‐MDCK) = human P‐gp (MDR1‐MDCK) (Homo sapiens, UniProt P08183); assay: Bidirectional permeability and efflux ratio in MDR1‐MDCK cells; format: in vitro ADME; conditions: MDR1‐MDCK cell line; for Efflux ratio: P app(B–A)/P app(A–B)
MDCK cell line = assay: Bidirectional permeability in parental MDCK cells; format: in vitro ADME, Canine; conditions: MDCK cell line, 1 μmol/L, 2 hours, 10 uM Cyclosporin A, n = 4
[8] = cited from earlier work
[9] = rat, steady‐state unbound concentration in brain (right striatum), microdialysis, IV infusion, mean ± SD
[10] = IV single bolus, n = 3, mean ± SD

Sequence of human P‐gp (MDR1‐MDCK) (P08183 whole entry): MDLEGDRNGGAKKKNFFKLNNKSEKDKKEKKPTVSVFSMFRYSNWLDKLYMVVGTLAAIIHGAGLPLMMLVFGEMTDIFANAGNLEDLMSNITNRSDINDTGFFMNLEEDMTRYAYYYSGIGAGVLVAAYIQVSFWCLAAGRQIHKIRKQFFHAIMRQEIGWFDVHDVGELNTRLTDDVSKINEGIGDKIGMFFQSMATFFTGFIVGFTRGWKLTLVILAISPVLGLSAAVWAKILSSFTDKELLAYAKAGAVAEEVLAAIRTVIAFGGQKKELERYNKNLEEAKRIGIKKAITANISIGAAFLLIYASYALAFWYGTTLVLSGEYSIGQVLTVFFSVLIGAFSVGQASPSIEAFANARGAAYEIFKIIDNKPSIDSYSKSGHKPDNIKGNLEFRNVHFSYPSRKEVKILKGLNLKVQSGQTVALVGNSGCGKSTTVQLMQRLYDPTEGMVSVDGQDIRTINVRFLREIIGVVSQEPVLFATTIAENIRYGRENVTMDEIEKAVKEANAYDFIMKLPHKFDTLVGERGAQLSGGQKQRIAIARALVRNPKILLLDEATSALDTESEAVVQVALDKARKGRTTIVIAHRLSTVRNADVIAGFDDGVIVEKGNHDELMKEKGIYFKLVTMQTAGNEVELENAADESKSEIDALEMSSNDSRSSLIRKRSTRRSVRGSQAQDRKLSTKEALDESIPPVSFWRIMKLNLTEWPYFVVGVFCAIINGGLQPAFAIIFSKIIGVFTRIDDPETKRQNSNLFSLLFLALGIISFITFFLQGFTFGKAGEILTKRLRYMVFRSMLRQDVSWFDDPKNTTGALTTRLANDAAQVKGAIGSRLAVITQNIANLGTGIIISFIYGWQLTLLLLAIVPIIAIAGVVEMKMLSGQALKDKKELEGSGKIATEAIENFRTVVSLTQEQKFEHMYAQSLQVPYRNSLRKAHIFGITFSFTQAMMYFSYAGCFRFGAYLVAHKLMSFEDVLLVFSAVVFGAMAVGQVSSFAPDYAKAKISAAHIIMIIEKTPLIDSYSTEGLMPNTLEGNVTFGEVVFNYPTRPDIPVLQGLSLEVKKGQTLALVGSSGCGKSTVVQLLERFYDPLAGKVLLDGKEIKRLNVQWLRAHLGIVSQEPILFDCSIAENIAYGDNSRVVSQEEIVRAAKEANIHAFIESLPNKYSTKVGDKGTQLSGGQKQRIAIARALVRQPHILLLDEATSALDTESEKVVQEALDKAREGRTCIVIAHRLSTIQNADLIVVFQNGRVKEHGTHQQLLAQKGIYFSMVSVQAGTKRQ
Sequence of human P-gp (MDR1) (P08183 whole entry): as above

SMILES | Efflux transporter substrate [1] | Class (based on membrane permeability and ER value) [1] | Papp A→B at 2 h, 5 μmol/L [2] | Papp B→A at 2 h, 5 μmol/L [2] | Vd [3] | clearance [3] | half-life [3] | Papp A→B at 2 h, 1 μmol/L (human P-gp (MDR1)) | Papp B→A at 2 h, 1 μmol/L (human P-gp (MDR1)) | concentration at 6 h [5, 9] | Papp A→B at 2 h, 1 μmol/L [7] | Papp B→A at 2 h, 1 μmol/L [7] | Papp at 2 h, 1 μmol/L [7] | Efflux ratio (Caco‐2 cell line) | Efflux ratio (human P‐gp (MDR1‐MDCK)) | reported mean values of rat plasma CL [8] | further results
Cc1cc(=O)n(-c2ccccc2)n1C [Antipyrine] | No | Class I | 36.2 ± 1.2 ×10⁻⁶ cm/s | 25.1 ± 0.6 ×10⁻⁶ cm/s | 0.724 ± 0.051 L/kg | 4.81 ± 0.77 mL/min/kg | 1.99 ± 0.43 h | 38.2 ± 2.1 ×10⁻⁶ cm/s | 25.8 ± 1.9 ×10⁻⁶ cm/s | – | – | – | – | – | – | – | C m,brain ([4]; Frontal cortex): 3.66 ± 1.19 µmol/L; C m,brain ([4]; Hypothalamus): 3.81 ± 0.25 µmol/L
CNS(=O)(=O)Cc1ccc2[nH]cc(CCN(C)C)c2c1 [Sumatriptan, sumatriptan] | Yes | Class II | 0.904 ± 0.283 ×10⁻⁶ cm/s | 1.91 ± 0.6 ×10⁻⁶ cm/s | 3.11 ± 0.03 L/kg | 59.1 ± 5.8 mL/min/kg | 0.98 ± 0.011 h | 0.683 ± 0.04 ×10⁻⁶ cm/s | 1.54 ± 0.59 ×10⁻⁶ cm/s | 845 ± 439 nM | 1.07 ± 0.08 ×10⁻⁶ cm/s | 2.21 ± 0.37 ×10⁻⁶ cm/s | 1.64 ± 0.66 ×10⁻⁶ cm/s | – | – | – | efflux ratio at 2 h, 5 μmol/L [2]: 2.12; efflux ratio at 2 h, 1 μmol/L (human P-gp (MDR1)): 2.25; steady‐state unbound concentration in brain lower than in plasma [6]: about 20 fold
Nc1nc2[nH]cc(CCc3ccc(C(=O)N[C@@H](CCC(=O)O)C(=O)O)cc3)c2c(=O)[nH]1 [Pemetrexed, pemetrexed] | Yes (?) | Class II | 0.392 ± 0.207 ×10⁻⁶ cm/s | 0.707 ± 0.443 ×10⁻⁶ cm/s | 0.637 ± 0.272 L/kg | 14 ± 1.8 mL/min/kg | 4.97 ± 1.15 h | 0.709 ± 0.236 ×10⁻⁶ cm/s | 0.442 ± 0.252 ×10⁻⁶ cm/s | 31.3 ± 19.3 nM | 0.452 ± 0.092 ×10⁻⁶ cm/s | 0.793 ± 0.148 ×10⁻⁶ cm/s | 0.623 ± 0.215 ×10⁻⁶ cm/s | 1.81 | 0.623 | – | efflux ratio at 2 h, 5 μmol/L [2]: < 2; Efflux ratio (human P‐gp (MDR1‐MDCK); listed as pemetrexed): less than 2.0; difference in steady‐state unbound drug concentrations between the brain and blood ([5]; brain lower than blood, rat microdialysis): 86 fold; Average P app (MDCK cell line): 0.623 10^−6 cm/s
Nc1nc(O)c2ncn(COC(CO)CO)c2n1 [Ganciclovir, ganciclovir] | – | – | – | – | 0.852 ± 0.159 L/kg | 21.5 ± 1.4 mL/min/kg | 1.35 ± 0.04 h | – | – | 2230 ± 960 nM | – | – | – | – | – | – | –
COc1ccc([C@@H]2Sc3ccccc3N(CCN(C)C)C(=O)[C@@H]2OC(C)=O)cc1 [Diltiazem, diltiazem] | No | Class I | 21.7 ± 2.3 ×10⁻⁶ cm/s | 20.1 ± 2.3 ×10⁻⁶ cm/s | 2.85 ± 0.3 L/kg | 97.7 ± 18.8 mL/min/kg | 0.823 ± 0.325 h | 12.5 ± 3.1 ×10⁻⁶ cm/s | 18.7 ± 1.9 ×10⁻⁶ cm/s | – | 23.2 ± 2.6 ×10⁻⁶ cm/s | 13.6 ± 1.3 ×10⁻⁶ cm/s | 18.4 ± 5.5 ×10⁻⁶ cm/s | 0.926 | 1.49 | 90.3 mL/min/kg | Efflux ratio (Caco‐2 cell line; listed as diltiazem): less than 2.0; efflux ratio at 2 h, 1 μmol/L (human P-gp (MDR1)): < 2
CC(C)NCC(O)COc1cccc2ccccc12 (stereo not shown) [Propranolol, propranolol] | No | Class I | 21.2 ± 3.6 ×10⁻⁶ cm/s | 13.8 ± 0.5 ×10⁻⁶ cm/s | 4.64 ± 0.7 L/kg | 82.8 ± 12.5 mL/min/kg | 0.943 ± 0.062 h | 18.9 ± 2.6 ×10⁻⁶ cm/s | 16.8 ± 0.5 ×10⁻⁶ cm/s | 1490 ± 240 nM | 13.7 ± 5.3 ×10⁻⁶ cm/s | 8.37 ± 3.8 ×10⁻⁶ cm/s | 11 ± 5.2 ×10⁻⁶ cm/s | 0.654 | – | 68 mL/min/kg | Efflux ratio (Caco‐2 cell line; listed as propranolol): less than 2.0; Average P app (MDCK cell line): about 11.0 10^−6 cm/s
Cc1c(N)c(=O)n(-c2ccccc2)n1C [4‐Aminoantipyrine, 4‐aminoantipyrine] | No | Class I | – | – | – | – | – | – | – | – | – | – | – | 0.713 | 0.662 | – | P app(A–B) (Caco‐2 cell line; 5 μmol/L, 2 hours, n = 4): 36.1 ± 2.5 10^−6 cm/s; P app(B–A) (Caco‐2 cell line; 5 μmol/L, 2 hours, n = 4): 25.8 ± 1.5 10^−6 cm/s; Efflux ratio (Caco‐2 cell line; listed as 4‐aminoantipyrine): less than 2.0; T 1/2 [3, 10]: 0.883 ± 0.025 h; V ss [3, 10]: 0.772 ± 0.018 L/kg; CL ([3]; plasma, IV single bolus, n = 3, mean ± SD): 17.7 ± 0.8 mL/min/kg; P app(A–B) (human P‐gp (MDR1‐MDCK); 1 μmol/L, 2 hours, n = 4): 39.1 ± 3.4 10^−6 cm/s; P app(B–A) (human P‐gp (MDR1‐MDCK); 1 μmol/L, 2 hours, n = 4): 25.9 ± 1.7 10^−6 cm/s; Efflux ratio (human P‐gp (MDR1‐MDCK); listed as 4‐aminoantipyrine): less than 2.0; C csf ([5]; concentration in CSF at end of infusion (6 hours), rat, n = 3‐4, mean ± SD): 5.82 ± 0.49 µmol/L; C csf lower than C m,brain by ([5]; rat, steady state): about 25%; C m,blood ([5]; steady‐state unbound concentration in blood, microdialysis, rat, IV infusion, n = 3‐4, mean ± SD): 6.73 ± 0.32 µmol/L; C m,brain ([5]; steady‐state unbound concentration in brain (right striatum), microdialysis, rat, IV infusion, mean ± SD): 7.71 ± 0.67 µmol/L
Cn1c(=O)c2[nH]cnc2n(C)c1=O [Theophylline, theophylline] | – | – | – | – | 0.453 ± 0.048 L/kg | 1.58 ± 0.52 mL/min/kg | 3.42 ± 1.02 h | – | – | 4520 ± 2110 nM | – | – | – | – | – | 2.39 mL/min/kg | –
